Results as given in patent US6989364B1, “Methods for treating cardiac hypertrophy by administering IFN-γ” (Genentech, Inc., priority 1998, dated 2006).

Experiments:
[1] = system: male Sprague/Dawley (SD) rats; test: Hemodynamic assessment (MAP) in rats treated with fluprostenol and/or IFN-γ; type: in vivo, rat; conditions: conscious rats, 14 days of treatment (FIG. 5)
Procedure: Hemodynamic assessment Thirteen days after treatment, rats were anesthetized with intraperitoreal injection of ketamine 80 mg/kg (Aveco Co., Inc., Fort Dodge, Iowa) and xylazine 10 mg/kg (Rugby Laboratories, Inc., Rockville Center, N.Y.). A catheter (PE-10 fused with PE 50) filled with heparin-saline solution (50 U/ml) was implanted into the abdominal aorta, via the right femoral artery, for measurement of mean arterial pressure (MAP) and heart rate (HR). The catheter was exteriorized and fixed at the back of the neck.
One day after catheterization, the arterial catheter was connected to a Model CP 10 pressure transducer (Century Technology Company, Inglewood, Calif., USA) that was coupled to a Grass Model 7 polygraph (Grass Instruments, Quincy, Mass., USA). MAP and HR were measured simultaneously in conscious, unrestrained rats.

[2] = system: left ventricle of rats with pressure overload; test: Cardiac gene expression (real-time RT-PCR) in rats with pressure overload; type: in vivo, rat
Procedure: Experimental protocol in rats with pressure overload The rats with aortic banding randomly received subcutaneous injection of IFN-γ at 0.08 mg/k twice a day for one day before surgery and for 14 days after surgery. Sham animals were not treated. Thirteen days after treatment, a catheter was implanted into the right carotid artery under anesthesia as indicated above. One day after implantation, arterial pressure and HR were measured in conscious rats. The heart and other organs including the liver, kidney, and spleen were removed, weighed, and fixed in 10% buffered formalin for pathological studies. The left ventricle was quickly dissected and frozen with liquid nitrogen in some animals and stored at −80° C. for assessment of gene expression.
RNA preparation Total RNA was isolated using RNeasy Maxi Columns (Qïägen) according to the manufacturer's instructions.
RT-PCR Real-time RT-PCR (TaqMan) technology was used to compare the gene expression between the various treatment groups. An oligonucleotide probe containing a fluorescent reporter dye, […], at the 3′-end was designed to hybridize to the amplicon defined by two PCR primers. A 3′-blocking phosphate prevents extension of the probe. The reporter dye is released from the probe by the 5′ exonuclease activity of Taq polymerase during the extension phase of PCR reaction. […] The threshold cycle number (Ct), defined as the point where the reporter fluorescence reaches a value greater than 10 times the standard deviation of the baseline, is […] to the amount of amplicon produced from the sample. Since the fluorescence is detected during the exponential phase of the amplification, none of the reaction components are limiting. In each experiment, a control is analyzed that lacks the RNA template to monitor for contamination, and another control is included where the RT step is omitted to eliminate amplification of possible contaminating DNA as the source of the signal. Reactions are optimized to give the greatest fluorescence signal and smallest Ct by titration of magnesium and primer concentrations, and the product is run on an agarose gel to verify the presence of a single band at the predicted molecular weight. In addition, the sequence of the amplicon is screened against Genbank to eliminate the possibility of overlap with closely related genes.
For each sample the mRNA for each target gene is determined using a standard curve as described below and then normalized to the amount of glyceraldehyde-3-phosphate-dehydrogenase (GAPDH) in the sample (see below for specifics of this calculation). The relative abundance of each target gene to GAPDH can then be compared among treatment groups.
RT-PCR was performed on 1 ng of total RNA per reaction using the TaqMan Model 7700 Sequence Detector (ABI-Perkin Elmer) (Gibson et al., Genome Res. 6, 995–1001 [1996]). Amplification reaction conditions (for 50 μl) were 1×TaqMan Buffer A, 200 μM dATP, dCTP, dGTP, and 400 μM dUTP, 10% glycerol, 6.5 mM MgCl2, 50 U MuLV reverse transcriptase, 20 U RNase Inhibitor, 1.25 U AmpliTaq Gold, 100 nM forward and reverse primers, and 100 nM fluorogenic probe. RT-PCR reagents and glycerol were purchased from Perkin Elmer and Sigma, respectively. Reactions were performed in MicoAmp Optical Tubes and Caps (ABI-Perkin Elmer). TaqMan primers and probes were designed according to guidelines determined by Perkin Elmer and synthesized at Genentech, Inc., except for those for rodent GAPDH which were a generous gift from Perkin Elmer. Reverse transcription was performed at 48° C. for 30 minutes followed by heat activation of AmpliTaq Gold at 95° C. for 10 minutes. Thermal cycling was at 95° C. for 30 seconds and 60° for 1.5 minutes for 40 cycles.
Quantitation of the TaqMan results was performed as described by Heid et al., Genome Res. 6:986–994 (1996), with modifications. Briefly, standard curves (1:5 serial dilution) for each target gene of interest were run in duplicate. […]

[3] = pressure overload, ratio to glyceraldehyde-3-phosphate dehydrogenase, mean ± SEM, n = 6

Substance: IFN-γ: recombinant mouse IFN-γ (Genentech, Inc., South San Francisco, Calif., or Genzyme, Cambridge, Mass.)
- Effect of IFN-γ on MAP of animals treated with fluprostenol [1]: did not affect the MAP
- Mean arterial pressure (MAP) compared to vehicle [1]: had no effect on MAP
- Effects of aortic constriction on α-smooth muscle actin and collagen I gene expression ([2]; banded rats, Table 3): inhibited
- ANF, atrial natriuretic factor expression [2, 3]: 3.61 ± 1.32
- COLI, collagen I expression [2, 3]: 0.77 ± 0.10
- COLIII, collagen III expression [2, 3]: 0.72 ± 0.09
- FIB, fibronectin expression [2, 3]: 0.97 ± 012
- SKA, α-skeletal actin expression [2, 3]: 2.47 ± 0.51
- SMA, α-smooth muscle actin expression [2, 3]: 0.77 ± 0.06
- βMHC, β-myosin heavy chain expression [2, 3]: 1.71 ± 0.14
